Experimental data as given in patent US4435387A, “Poly-cation salts of bis (or tris) 4-O-polyhexose-thio-arylene sulfate derivatives” (American Cyanamid Company, priority 1982, dated 1984).
Like-named read-outs stand apart in the source and are kept apart here.

Experiments:
[1] = tested on: hereditary angioneurotic edema; settings: literature reports; cited from earlier work
activated human C1 = target: T1, activated human C1 (Homo sapiens, UniProt P09871); test: Test Code 026 (C1 inhibitor); format: biochemical; settings: in vitro; twofold serial dilution assay, higher well number indicates higher activity
T1 construct: fluid-phase C2 destruction with C4 present
T1 sequence (P09871 16-688): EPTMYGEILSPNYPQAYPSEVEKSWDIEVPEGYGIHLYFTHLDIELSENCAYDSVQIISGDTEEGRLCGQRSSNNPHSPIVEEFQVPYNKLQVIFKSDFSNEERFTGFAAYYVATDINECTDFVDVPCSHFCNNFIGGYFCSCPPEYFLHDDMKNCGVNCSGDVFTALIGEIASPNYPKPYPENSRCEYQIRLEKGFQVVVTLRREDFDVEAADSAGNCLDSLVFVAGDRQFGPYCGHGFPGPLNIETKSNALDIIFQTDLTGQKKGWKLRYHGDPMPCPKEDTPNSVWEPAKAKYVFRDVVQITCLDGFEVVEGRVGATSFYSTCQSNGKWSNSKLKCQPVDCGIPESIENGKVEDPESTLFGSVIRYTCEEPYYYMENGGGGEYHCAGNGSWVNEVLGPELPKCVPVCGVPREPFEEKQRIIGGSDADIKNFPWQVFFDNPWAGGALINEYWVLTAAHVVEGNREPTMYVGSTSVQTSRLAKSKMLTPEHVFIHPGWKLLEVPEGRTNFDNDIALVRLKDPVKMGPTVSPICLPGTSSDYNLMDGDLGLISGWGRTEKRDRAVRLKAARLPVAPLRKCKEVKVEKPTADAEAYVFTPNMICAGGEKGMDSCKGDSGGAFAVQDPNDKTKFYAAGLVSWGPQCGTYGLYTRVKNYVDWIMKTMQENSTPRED
T1 sequence (P00736 18-705 partner): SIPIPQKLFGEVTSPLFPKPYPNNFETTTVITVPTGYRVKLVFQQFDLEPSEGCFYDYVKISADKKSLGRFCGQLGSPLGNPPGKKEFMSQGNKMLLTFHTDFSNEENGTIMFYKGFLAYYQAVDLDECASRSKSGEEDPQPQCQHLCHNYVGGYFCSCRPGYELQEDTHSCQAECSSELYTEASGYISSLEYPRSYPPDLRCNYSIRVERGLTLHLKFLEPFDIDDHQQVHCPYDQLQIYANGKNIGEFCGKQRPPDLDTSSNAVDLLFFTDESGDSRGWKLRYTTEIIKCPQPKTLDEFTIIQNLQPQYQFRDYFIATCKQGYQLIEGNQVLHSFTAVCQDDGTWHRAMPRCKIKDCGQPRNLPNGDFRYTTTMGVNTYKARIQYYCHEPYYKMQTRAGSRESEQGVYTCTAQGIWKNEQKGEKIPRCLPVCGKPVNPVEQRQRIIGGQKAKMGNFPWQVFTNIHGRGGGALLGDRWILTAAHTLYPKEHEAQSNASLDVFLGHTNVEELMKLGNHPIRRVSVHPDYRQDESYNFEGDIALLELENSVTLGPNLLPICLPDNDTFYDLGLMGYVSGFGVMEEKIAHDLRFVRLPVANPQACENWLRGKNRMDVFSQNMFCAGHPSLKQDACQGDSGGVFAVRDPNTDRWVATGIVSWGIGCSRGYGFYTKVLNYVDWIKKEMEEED
T1 sequence (P02745 23-245 partner): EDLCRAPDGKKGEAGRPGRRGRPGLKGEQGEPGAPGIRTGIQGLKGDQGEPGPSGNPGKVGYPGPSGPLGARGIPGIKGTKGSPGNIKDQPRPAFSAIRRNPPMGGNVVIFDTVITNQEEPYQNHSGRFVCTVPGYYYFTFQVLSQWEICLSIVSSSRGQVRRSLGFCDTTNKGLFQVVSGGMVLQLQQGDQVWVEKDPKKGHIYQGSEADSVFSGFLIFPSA
T1 sequence (P02746 28-253 partner): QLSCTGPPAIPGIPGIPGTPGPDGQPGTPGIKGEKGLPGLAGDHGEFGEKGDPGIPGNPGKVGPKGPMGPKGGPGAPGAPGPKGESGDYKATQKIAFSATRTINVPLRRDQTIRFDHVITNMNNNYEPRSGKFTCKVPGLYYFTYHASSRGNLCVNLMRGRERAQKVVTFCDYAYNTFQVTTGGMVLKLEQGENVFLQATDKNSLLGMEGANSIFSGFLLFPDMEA
T1 sequence (P02747 29-245 partner): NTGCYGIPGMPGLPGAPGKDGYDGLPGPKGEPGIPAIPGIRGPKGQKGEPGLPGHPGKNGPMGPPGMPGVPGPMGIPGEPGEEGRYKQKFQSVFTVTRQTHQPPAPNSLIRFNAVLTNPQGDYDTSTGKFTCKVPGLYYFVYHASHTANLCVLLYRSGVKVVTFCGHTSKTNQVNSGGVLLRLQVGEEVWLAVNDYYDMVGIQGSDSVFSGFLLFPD
Experimental: (§1) Percent inhibition is calculated by comparison with simultaneous controls.
(§2) **Activity in wells, a serial dilution assay; higher well number indicate
(§3) higher activity. The serial dilutions are twofold.

[2] = tested on: complement activity of guinea pig sera; test: Guinea Pig Intraperitoneal Test (GPIP); format: in vivo; settings: Cavia porcellus, ip, 200 mg/kg i.p.
Experimental: as §1

[3] = tested on: late components of human complement (C3-C9); test: Test Code 035 (C3-C9 inhibitor), lysis of EAC 142; format: biochemical; settings: in vitro; twofold serial dilution assay, higher well number indicates higher activity
Experimental: as §1, §2, §3

[4] = tested on: human serum total hemolytic complement activity; settings: in vitro and in vivo, judged by reduction in total hemolytic complement activity; Pathol. Biol. 25 (1977); cited from earlier work

Compound	C-1 026 Wells (activated human C1) [Wells]	C-Late 035 Wells [3] [Wells]	also measured
NC[C@H]1CC[C@H](C(=O)O)CC1 [tranexamic acid]			treatment of hereditary angioneurotic edema [1]: used with success
O=C(Nc1ccc(S[C@@H]2O[C@H](COS(=O)(=O)O)[C@@H](O[C@H]3O[C@H](COS(=O)(=O)O)[C@@H](OS(=O)(=O)O)[C@H](OS(=O)(=O)O)[C@H]3OS(=O)(=O)O)[C@H](OS(=O)(=O)O)[C@H]2OS(=O)(=O)O)cc1)c1ccc(C(=O)Nc2ccc(S[C@@H]3O[C@H](COS(=O)(=O)O)[C@@H](O[C@H]4O[C@H](COS(=O)(=O)O)[C@@H](OS(=O)(=O)O)[C@H](OS(=O)(=O)O)[C@H]4OS(=O)(=O)O)[C@H](OS(=O)(=O)O)[C@H]3OS(=O)(=O)O)cc2)cc1.[Na].[Na].[Na].[Na].[Na].[Na].[Na].[Na].[Na].[Na].[Na].[Na].[Na].[Na] [Tetradecasodium N,N'-bis[4-[[2,3,6-tri-O-sulfo-4-O-(2,3,4,6-tetra-O-sulfo-α-D-glucopyranosyl)-β-D-glucopyranosyl]thio]phenyl]-1,4-benzenedicarboxamide]	9	2	inhibition at 200 mg/kg ([2]; serum complement 2 hours after injection, read-out: In vivo Activity (Guinea Pig % Inhibition) Intraperitoneal, 2 hours): 87%; inhibition at 200 mg/kg ([2]; serum complement 6 hours after injection, read-out: In vivo Activity (Guinea Pig % Inhibition) Intraperitoneal, 6 hours): 90%; inhibition at 200 mg/kg ([2]; serum complement 24 hours after injection, read-out: In vivo Activity (Guinea Pig % Inhibition) Intraperitoneal, 24 hours): 62%
O=S(=O)(O)OC[C@H]1O[C@@H](Sc2ccc(NS(=O)(=O)c3cc(S(=O)(=O)Nc4ccc(S[C@@H]5O[C@H](COS(=O)(=O)O)[C@@H](O[C@H]6O[C@H](COS(=O)(=O)O)[C@@H](OS(=O)(=O)O)[C@H](OS(=O)(=O)O)[C@H]6OS(=O)(=O)O)[C@H](OS(=O)(=O)O)[C@H]5OS(=O)(=O)O)cc4)cc(S(=O)(=O)Nc4ccc(S[C@@H]5O[C@H](COS(=O)(=O)O)[C@@H](O[C@H]6O[C@H](COS(=O)(=O)O)[C@@H](OS(=O)(=O)O)[C@H](OS(=O)(=O)O)[C@H]6OS(=O)(=O)O)[C@H](OS(=O)(=O)O)[C@H]5OS(=O)(=O)O)cc4)c3)cc2)[C@H](OS(=O)(=O)O)[C@@H](OS(=O)(=O)O)[C@@H]1O[C@H]1O[C@H](COS(=O)(=O)O)[C@@H](OS(=O)(=O)O)[C@H](OS(=O)(=O)O)[C@H]1OS(=O)(=O)O.[Na].[Na].[Na].[Na].[Na].[Na].[Na].[Na].[Na].[Na].[Na].[Na].[Na].[Na].[Na].[Na].[Na].[Na].[Na].[Na].[Na] [Heneicosasodium N,N',N"-tris[4-[[2,3,6-tri-O-sulfo-4-O-(2,3,4,6-tetra-O-sulfo-α-D-glucopyranosyl)-β-D-glucopyranosyl]thio]phenyl]-1,3,5-benzenetrisulfonamide]	9	3	
pentosan-polysulfoester			anticomplementary activity on human serum [4]: anticomplementary activity
NCCCCCC(=O)O [epsilon-aminocaproic acid]			treatment of hereditary angioneurotic edema [1]: used with success
O=C(Nc1ccc(S[C@@H]2O[C@H](COS(=O)(=O)O)[C@@H](O[C@H]3O[C@H](COS(=O)(=O)O)[C@@H](OS(=O)(=O)O)[C@H](OS(=O)(=O)O)[C@H]3OS(=O)(=O)O)[C@H](OS(=O)(=O)O)[C@H]2OS(=O)(=O)O)cc1)c1cc(C(=O)Nc2ccc(S[C@@H]3O[C@H](COS(=O)(=O)O)[C@@H](O[C@H]4O[C@H](COS(=O)(=O)O)[C@@H](OS(=O)(=O)O)[C@H](OS(=O)(=O)O)[C@H]4OS(=O)(=O)O)[C@H](OS(=O)(=O)O)[C@H]3OS(=O)(=O)O)cc2)cc(C(=O)Nc2ccc(S[C@@H]3O[C@H](COS(=O)(=O)O)[C@@H](O[C@H]4O[C@H](COS(=O)(=O)O)[C@@H](OS(=O)(=O)O)[C@H](OS(=O)(=O)O)[C@H]4OS(=O)(=O)O)[C@H](OS(=O)(=O)O)[C@H]3OS(=O)(=O)O)cc2)c1.[Na].[Na].[Na].[Na].[Na].[Na].[Na].[Na].[Na].[Na].[Na].[Na].[Na].[Na].[Na].[Na].[Na].[Na].[Na].[Na].[Na] [Heneicosasodium N,N',N"-tris[4-[[2,3,6-tri-O-sulfo-4-O-(2,3,4,6-tetra-O-sulfo-α-D-glucopyranosyl)-β-D-glucopyranosyl]thio]phenyl]-1,3,5-benzenetricarboxamide]	8	2	
O=S(=O)(O)OC[C@H]1O[C@@H](Sc2ccc(NS(=O)(=O)c3cc(S(=O)(=O)Nc4ccc(S[C@@H]5O[C@H](COS(=O)(=O)O)[C@@H](O[C@@H]6O[C@H](COS(=O)(=O)O)[C@@H](OS(=O)(=O)O)[C@H](OS(=O)(=O)O)[C@H]6OS(=O)(=O)O)[C@H](OS(=O)(=O)O)[C@H]5OS(=O)(=O)O)cc4)cc(S(=O)(=O)Nc4ccc(S[C@@H]5O[C@H](COS(=O)(=O)O)[C@@H](O[C@@H]6O[C@H](COS(=O)(=O)O)[C@@H](OS(=O)(=O)O)[C@H](OS(=O)(=O)O)[C@H]6OS(=O)(=O)O)[C@H](OS(=O)(=O)O)[C@H]5OS(=O)(=O)O)cc4)c3)cc2)[C@H](OS(=O)(=O)O)[C@@H](OS(=O)(=O)O)[C@@H]1O[C@@H]1O[C@H](COS(=O)(=O)O)[C@@H](OS(=O)(=O)O)[C@H](OS(=O)(=O)O)[C@H]1OS(=O)(=O)O.[Na].[Na].[Na].[Na].[Na].[Na].[Na].[Na].[Na].[Na].[Na].[Na].[Na].[Na].[Na].[Na].[Na].[Na].[Na].[Na].[Na] [Heneicosasodium N,N',N"-tris[4-[[2,3,6-tri-O-sulfo-4-O-(2,3,4,6-tetra-O-sulfo-β-D-glucopyranosyl)-β-D-glucopyranosyl]thio]phenyl]-1,3,5-benzenetrisulfonamide]	12	3	
